From US9815839B2, “N-(1-(substituted-phenyl)ethyl)-9H-purin-6-amines as PI3K inhibitors” (Incyte Corporation, priority 2010, dated 2017)

Tests used:
PI3Kδ (p110δ/p85α) = target: T1, PI3Kδ (p110δ/p85α) (Homo sapiens, UniProt O00329); assay: PI3Kδ scintillation proximity assay; assay type: biochemical; conditions: 20 μM ATP, 4 nM PI3Kδ
T1 construct: purchased Millipore (Bedford, Mass.)
Procedure, shortened: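 p110δ/p85α (4 nM) phosphorylated 20 μM PIP2 with 20 μM ATP plus [γ-33P]ATP in 20 mM MOPS pH 6.7, 10 mM MgCl2, 5 mM DTT, 0.03% CHAPS, 0.5% DMSO, 210 min at room temperature. EDTA quench, WGA SPA bead capture, scintillation counting; IC50 from log-concentration fit.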

[1] = system: Pfeiffer cell line (diffuse large B cell lymphoma); assay: Pfeiffer cell proliferation assay; assay type: cell-based; conditions: Pfeiffer cells, 3-4 days plus 12 hours [3H]-thymidine incorporation
Method: Example C: Pfeiffer Cell Proliferation Assay
Pfeiffer cell line (diffuse large B cell lymphoma) was purchased from ATCC (Manassas, Va.) and maintained in the culture medium recommended (RPMI and 10% FBS). To measure the anti-proliferation activity of the compounds, the Pfeiffer cells were plated with the culture medium (2×10^3 cells/well/per 200 μl) into 96-well ultra-low binding plates (Corning, Corning, N.Y.), in the presence or absence of a concentration range of test compounds. After 3-4 days, [^3H]-thymidine (1 μCi/well) (PerkinElmer, Boston, Mass.) in PBS was then added to the cell culture for an additional 12 hours before the incorporated radioactivity was separated by filtration with water through GF/B filters (Packard Bioscience, Meridenj, Conn.) and measured by liquid scintillation counting with a TopCount (Packard Bioscience).

T1 sequence (O00329 whole entry, species assumed): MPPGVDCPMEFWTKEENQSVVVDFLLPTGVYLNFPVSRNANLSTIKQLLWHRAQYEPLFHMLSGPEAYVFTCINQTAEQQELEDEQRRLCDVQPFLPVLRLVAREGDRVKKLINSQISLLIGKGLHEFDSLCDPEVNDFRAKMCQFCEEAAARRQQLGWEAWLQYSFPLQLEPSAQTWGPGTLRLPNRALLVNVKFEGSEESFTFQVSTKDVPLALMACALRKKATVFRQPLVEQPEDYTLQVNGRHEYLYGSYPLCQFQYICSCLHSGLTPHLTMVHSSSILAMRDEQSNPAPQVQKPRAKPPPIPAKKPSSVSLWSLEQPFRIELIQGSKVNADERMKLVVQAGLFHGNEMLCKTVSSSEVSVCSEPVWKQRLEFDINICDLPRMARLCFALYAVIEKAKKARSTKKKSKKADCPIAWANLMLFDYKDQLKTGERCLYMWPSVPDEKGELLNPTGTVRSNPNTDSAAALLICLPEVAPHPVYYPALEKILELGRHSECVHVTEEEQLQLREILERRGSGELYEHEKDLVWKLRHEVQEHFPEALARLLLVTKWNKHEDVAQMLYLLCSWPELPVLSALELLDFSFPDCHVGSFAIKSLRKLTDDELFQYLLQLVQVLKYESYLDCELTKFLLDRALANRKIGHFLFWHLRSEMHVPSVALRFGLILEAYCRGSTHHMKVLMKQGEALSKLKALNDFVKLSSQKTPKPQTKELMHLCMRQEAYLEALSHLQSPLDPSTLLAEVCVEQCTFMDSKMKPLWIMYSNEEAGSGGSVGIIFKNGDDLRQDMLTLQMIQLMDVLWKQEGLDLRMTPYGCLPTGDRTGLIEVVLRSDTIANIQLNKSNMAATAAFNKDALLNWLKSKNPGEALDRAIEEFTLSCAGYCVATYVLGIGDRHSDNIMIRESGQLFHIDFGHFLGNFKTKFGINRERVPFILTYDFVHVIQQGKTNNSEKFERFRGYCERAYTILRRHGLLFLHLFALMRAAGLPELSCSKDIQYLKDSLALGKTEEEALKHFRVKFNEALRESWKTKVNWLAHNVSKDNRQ
T1 sequence (P27986 whole entry partner, species assumed): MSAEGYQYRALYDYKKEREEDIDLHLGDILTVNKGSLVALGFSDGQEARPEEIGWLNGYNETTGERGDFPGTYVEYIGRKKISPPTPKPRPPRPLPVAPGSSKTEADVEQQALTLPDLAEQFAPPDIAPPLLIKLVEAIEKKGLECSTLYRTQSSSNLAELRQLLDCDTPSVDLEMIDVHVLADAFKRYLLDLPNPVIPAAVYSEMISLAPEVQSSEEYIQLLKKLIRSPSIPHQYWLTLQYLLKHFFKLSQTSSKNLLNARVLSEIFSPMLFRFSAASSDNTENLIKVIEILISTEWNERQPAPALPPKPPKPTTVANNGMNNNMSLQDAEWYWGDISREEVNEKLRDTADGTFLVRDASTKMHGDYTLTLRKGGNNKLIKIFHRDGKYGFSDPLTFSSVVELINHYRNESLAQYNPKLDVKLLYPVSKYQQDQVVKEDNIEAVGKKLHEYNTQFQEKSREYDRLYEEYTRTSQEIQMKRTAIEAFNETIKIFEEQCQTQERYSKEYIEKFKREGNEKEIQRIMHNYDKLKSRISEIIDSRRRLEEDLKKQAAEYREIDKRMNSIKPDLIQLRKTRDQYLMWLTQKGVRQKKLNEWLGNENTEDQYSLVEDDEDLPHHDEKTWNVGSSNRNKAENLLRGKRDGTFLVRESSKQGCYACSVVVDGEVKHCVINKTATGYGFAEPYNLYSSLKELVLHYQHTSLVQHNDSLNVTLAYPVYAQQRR

COc1c(C(C)Nc2ncnc3[nH]cnc23)cc(Cl)c(Cl)c1C1CN(C(C)C)C1 (stereo not shown) [Example 194, N-{1-[4,5-Dichloro-3-(1-isopropylazetidin-3-yl)-2-methoxyphenyl]ethyl}-9H-purin-6-amine bis(trifluoroacetate)]
IC50 (PI3Kδ (p110δ/p85α)): < 50 nM | IC50 ([1]; Homo sapiens, Pfeiffer): < 100 nM

COc1c(C(C)Nc2ncnc3[nH]cnc23)cc(Cl)c(Cl)c1C1CN(CC2CCOC2)C1 (stereo not shown) [Example 202, N-(1-{4,5-dichloro-2-methoxy-3-[1-(tetrahydrofuran-3-ylmethyl)azetidin-3-yl]phenyl}ethyl)-9H-purin-6-amine]
IC50 (PI3Kδ (p110δ/p85α)): < 50 nM | IC50 ([1]; Homo sapiens, Pfeiffer): < 100 nM

COc1ccc(-c2c(C)c(Cl)cc(C(C)Nc3ncnc4[nH]cnc34)c2OC)cc1Cl (stereo not shown) [Example 97, N-[1-(3′,5-dichloro-2,4′-dimethoxy-6-methylbiphenyl-3-yl)ethyl]-9H-purin-6-amine]
IC50 (PI3Kδ (p110δ/p85α)): 50 to 100 nM | IC50 ([1]; Homo sapiens, Pfeiffer): 100 to 500 nM

COc1c(C(C)Nc2ncnc3[nH]cnc23)cc(Cl)c(C)c1-c1ccc(F)c(C(F)(F)F)c1 (stereo not shown) [Example 93, N-{1-[5-chloro-4′-fluoro-2-methoxy-6-methyl-3′-(trifluoromethyl)biphenyl-3-yl]ethyl}-9H-purin-6-amine]
IC50 (PI3Kδ (p110δ/p85α)): 50 to 100 nM | IC50 ([1]; Homo sapiens, Pfeiffer): > 1000 nM

COc1c(C(C)Nc2ncnc3[nH]cnc23)cc(Cl)c(C)c1-c1ccnc(N2CCOCC2)c1F (stereo not shown) [Example 49, N-{1-[5-chloro-3-(3-fluoro-2-morpholin-4-ylpyridin-4-yl)-2-methoxy-4-methylphenyl]ethyl}-9H-purin-6-amine]
IC50 (PI3Kδ (p110δ/p85α)): < 50 nM | IC50 ([1]; Homo sapiens, Pfeiffer): < 100 nM

COc1c(C(C)Nc2ncnc3[nH]cnc23)cc(Cl)c(C)c1-c1cncc(C#N)c1 (stereo not shown) [Example 53, 5-{3-chloro-6-methoxy-2-methyl-5-[1-(9H-purin-6-ylamino)ethyl]phenyl}nicotinonitrile]
IC50 ([1]; Homo sapiens, Pfeiffer): < 100 nM

COc1c(C(C)Nc2ncnc3[nH]cnc23)cc(Cl)c(Cl)c1C1CN(C(C)CO)C1 (stereo not drawn) [Example 208, 2-(3-{2,3-Dichloro-6-methoxy-5-[1-(9H-purin-6-ylamino)ethyl]phenyl}azetidin-l-yl)propan-1-ol bistrifluoroacetate]
IC50 (PI3Kδ (p110δ/p85α)): < 50 nM | IC50 ([1]; Homo sapiens, Pfeiffer): < 100 nM

Cc1nn(C)c(C)c1-c1c(C)c(Cl)cc(C(C)Nc2ncnc3[nH]cnc23)c1-c1cccc(F)c1 (stereo not shown) [Example 75, N-{1-[4-chloro-3′-fluoro-5-methyl-6-(1,3,5-trimethyl-1H-pyrazol-4-yl)biphenyl-2-yl]ethyl}-9H-purin-6-amine]
IC50 (PI3Kδ (p110δ/p85α)): < 50 nM | IC50 ([1]; Homo sapiens, Pfeiffer): < 100 nM

CCOc1c(C(C)Nc2ncnc3[nH]cnc23)cc(Cl)c(C#N)c1C1CN(CC)C1 (stereo not shown) [Example 213, 6-Chloro-3-ethoxy-2-(1-ethylazetidin-3-yl)-4-[1-(9H-purin-6-ylamino)ethyl]benzonitrile bis(trifluoroacetate)]
IC50 (PI3Kδ (p110δ/p85α)): < 50 nM | IC50 ([1]; Homo sapiens, Pfeiffer): < 100 nM

COc1c(C(C)Nc2ncnc3[nH]cnc23)cc(Cl)c(C)c1-c1ccc(OC2CCOCC2)nc1 (stereo not shown) [Example 45, N-(1-{5-chloro-2-methoxy-4-methyl-3-[6-(tetrahydro-2H-pyran-4-yloxy)pyridin-3-yl]phenyl}ethyl)-9H-purin-6-amine]
IC50 (PI3Kδ (p110δ/p85α)): < 50 nM | IC50 ([1]; Homo sapiens, Pfeiffer): 100 to 500 nM

COc1ccc(-c2c(C)c(Cl)cc(C(C)Nc3ncnc4[nH]cnc34)c2OC)cn1 (stereo not shown) [Example 52, N-{1-[5-chloro-2-methoxy-3-(6-methoxypyridin-3-yl)-4-methylphenyl]ethyl}-9H-purin-6-amine]
IC50 (PI3Kδ (p110δ/p85α)): < 50 nM | IC50 ([1]; Homo sapiens, Pfeiffer): < 100 nM

COc1c(C(C)Nc2ncnc3[nH]cnc23)cc(Cl)c(C)c1-c1ccc(CC#N)cc1 (stereo not shown) [Example 41, {3′-chloro-6′-methoxy-2′-methyl-5′-[1-(9H-purin-6-ylamino)ethyl]biphenyl-4-yl}acetonitril]
IC50 (PI3Kδ (p110δ/p85α)): < 50 nM | IC50 ([1]; Homo sapiens, Pfeiffer): > 1000 nM

COc1c(C(C)Nc2ncnc3[nH]cnc23)cc(Cl)c(C)c1-c1ccc(NC(C)=O)nc1 (stereo not shown) [Example 112, N-(5-{3-chloro-6-methoxy-2-methyl-5-[1-(9H-purin-6-ylamino)ethyl]phenyl}-pyridin-2-yl)acetamide]
IC50 (PI3Kδ (p110δ/p85α)): < 50 nM | IC50 ([1]; Homo sapiens, Pfeiffer): < 100 nM

Cc1c(Cl)cc(C(C)Nc2ncnc3[nH]cnc23)c(-c2cccc(F)c2)c1-c1ccnn1C (stereo not shown) [Example 74, N-{1-[4-chloro-3′-fluoro-5-methyl-6-(1-methyl-1H-pyrazol-5-yl)biphenyl-2-yl]ethyl}-9H-purin-6-amine]
IC50 (PI3Kδ (p110δ/p85α)): < 50 nM | IC50 ([1]; Homo sapiens, Pfeiffer): < 100 nM

Cc1c(Cl)cc(C(C)Nc2ncnc3[nH]cnc23)c(-c2cccc(F)c2)c1N(S(C)(=O)=O)S(C)(=O)=O (stereo not shown) [Example 12, N-{4-chloro-3′-fluoro-3-methyl-6-[1-(9H-purin-6-ylamino)ethyl]biphenyl-2-yl}-N-(methylsulfonyl)methanesulfonamide]
IC50 (PI3Kδ (p110δ/p85α)): < 50 nM | IC50 ([1]; Homo sapiens, Pfeiffer): < 100 nM

Cc1c(Cl)cc(C(C)Nc2ncnc3[nH]cnc23)c(-c2ccccc2)c1-c1ccc(S(C)(=O)=O)cc1 (stereo not shown) [Example 14, N-{1-[5′-chloro-6′-methyl-4-(methylsulfonyl)-1,1′:2′,1″-terphenyl-3′-yl]ethyl}-9H-purin-6-amine]
IC50 (PI3Kδ (p110δ/p85α)): < 50 nM | IC50 ([1]; Homo sapiens, Pfeiffer): < 100 nM

Cc1c(Cl)cc(C(C)Nc2ncnc3[nH]cnc23)c(-c2cccc(F)c2)c1-c1cnn(C)c1 (stereo not shown) [Example 73, N-{1-[4-chloro-3′-fluoro-5-methyl-6-(1-methyl-1H-pyrazol-4-yl)biphenyl-2-yl]ethyl}-9H-purin-6-amine]
IC50 ([1]; Homo sapiens, Pfeiffer): < 100 nM

COc1c(C(C)Nc2ncnc3[nH]cnc23)cc(Cl)c(C)c1-c1ccc(S(C)(=O)=O)cc1 (stereo not shown) [Example 32, N-{1-[5-chloro-2-methoxy-6-methyl-4′-(methylsulfonyl)biphenyl-3-yl]ethyl}-9H-purin-6-amine]
IC50 ([1]; Homo sapiens, Pfeiffer): < 100 nM

COc1c(C(C)Nc2ncnc3[nH]cnc23)cc(Cl)c(C)c1-c1cnc(N)nc1 (stereo not shown) [Example 33, N-{1-[3-(2-aminopyrimidin-5-yl)-5-chloro-2-methoxy-4-methylphenyl]ethyl}-9H-purin-6-amine]
IC50 ([1]; Homo sapiens, Pfeiffer): < 100 nM

COc1c(C(C)Nc2ncnc3[nH]cnc23)cc(Cl)c(C)c1-c1cc(C(F)(F)F)ccc1F (stereo not shown) [Example 86, N-{1-[5-chloro-2′-fluoro-2-methoxy-6-methyl-5′-(trifluoromethyl)biphenyl-3-yl]ethyl]-9H-purin-6-ami]
IC50 ([1]; Homo sapiens, Pfeiffer): > 1000 nM

COc1c(C(C)Nc2ncnc3[nH]cnc23)cc(Cl)c(C)c1-c1cc(F)ccc1F (stereo not shown) [Example 50, N-[1-(5-chloro-2′,5′-difluoro-2-methoxy-6-methylbiphenyl-3-yl)ethyl]-9H-purin-6-amine]
IC50 ([1]; Homo sapiens, Pfeiffer): > 1000 nM | IC50 [1]: 500 to 1000 nM

Cc1c(Cl)cc(C(C)Nc2ncnc3[nH]cnc23)c(-c2cccc(F)c2)c1C#N (stereo not shown) [Example 1, 4-Chloro-3′-fluoro-3-methyl-6-[1-(9H-purin-6-ylamino)ethyl]biphenyl-2-carbonitrile]
IC50 ([1]; Homo sapiens, Pfeiffer): 500 to 1000 nM

Cc1c(Cl)cc(C(C)Nc2ncnc3[nH]cnc23)c(OCCN2CCOCC2)c1-c1cnc(N)nc1 (stereo not shown) [Example 149, N-{1-[3-(2-amino-pyrimidin-5-yl)-5-chloro-4-methyl-2-(2-morpholin-4-ylethoxy)-phenyl]ethyl}-9H-purin-6-amine]
IC50 (PI3Kδ (p110δ/p85α)): < 50 nM

CC(=O)Nc1ccc(-c2cc(Cl)cc(C(C)Nc3ncnc4[nH]cnc34)c2-c2cc(F)cc(F)c2)cc1 (stereo not shown) [Example 130, N-{5′-chloro-3″,5″-difluoro-3′-[1-(9H-purin-6-ylamino)ethyl]-1,1′:2′,1″-terphenyl-4-yl}acetamide]
IC50 (PI3Kδ (p110δ/p85α)): < 50 nM
